Laboratory results taken from ChEMBL document CHEMBL1201862, “PubChem BioAssay data set” (2004).
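Five concentrations, 48 hours, 96-well plates. Here, GI50 denotes the concentration required for 50% inhibition of growth.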 Calls of active or inactive are those of the source. Cut-off read from the data, not from the text of the source: active = GI50 up to about 1.1 µM and inactive = higher.

Columns and labels:
Test in all cases: DTP human tumour cell line panel, 48 h
786-0 = test system: 786-0
CCRF-CEM = test system: CCRF-CEM
EKVX = test system: EKVX
HCC 2998 = test system: HCC 2998
HCT-15 = test system: HCT-15
IGROV-1 = test system: IGROV-1
K562 = test system: K562
MDA-MB-231 = test system: MDA-MB-231
MOLT-4 = test system: MOLT-4
NCI-H226 = test system: NCI-H226
NCI-H23 = test system: NCI-H23
NCI-H522 = test system: NCI-H522
NCI/ADR-RES = test system: NCI/ADR-RES
RPMI-8226 = test system: RPMI-8226
SK-MEL-28 = test system: SK-MEL-28
SK-MEL-5 = test system: SK-MEL-5
SNB-19 = test system: SNB-19
U-251 = test system: U-251
UACC-62 = test system: UACC-62
PC-3 = test system: PC-3

## COc1ccc(NCc2cnc3nc(N)nc(N)c3c2C)cc1
786-0
  GI50: 0.254 µM (active)
CCRF-CEM
  GI50: 0.57 µM (active)
EKVX
  GI50: 15.7 µM (inactive)
HCC 2998
  GI50: 12.7 µM (inactive)
HCT-15
  GI50: 0.443 µM
IGROV-1
  GI50: 0.771 µM (active)
K562
  GI50: 0.0486 µM (active)
MDA-MB-231
  GI50: 0.121 µM (active)
MOLT-4
  GI50: 0.493 µM (active)
NCI-H226
  GI50: 33.7 µM (inactive)
NCI-H23
  GI50: 0.628 µM (active)
NCI-H522
  GI50: 5.52 µM (inactive)
NCI/ADR-RES
  GI50: > 100 µM (inactive)
RPMI-8226
  GI50: 5.96 µM (inactive)
SK-MEL-28
  GI50: 8.51 µM (inactive)
SK-MEL-5
  GI50: 0.419 µM (active)
SNB-19
  GI50: 21 µM (inactive)
U-251
  GI50: 0.555 µM (active)
UACC-62
  GI50: 0.274 µM (active)

## O=c1cc(CO)oc2c3c(cc(O)c12)OCC(COC1OC(CO)C(O)C(O)C1O)=CC3 (stereo not drawn)
786-0
  GI50: > 100 µM (inactive)
CCRF-CEM
  GI50: > 100 µM (inactive)
EKVX
  GI50: > 100 µM (inactive)
HCC 2998
  GI50: > 100 µM (inactive)
HCT-15
  GI50: > 100 µM
IGROV-1
  GI50: > 100 µM (inactive)
K562
  GI50: > 100 µM (inactive)
MOLT-4
  GI50: > 100 µM (inactive)
NCI-H226
  GI50: > 100 µM (inactive)
NCI-H23
  GI50: > 100 µM (inactive)
NCI-H522
  GI50: > 100 µM (inactive)
RPMI-8226
  GI50: > 100 µM (inactive)
SK-MEL-28
  GI50: > 100 µM (inactive)
SK-MEL-5
  GI50: > 100 µM (inactive)
SNB-19
  GI50: > 100 µM (inactive)
U-251
  GI50: > 100 µM (inactive)
UACC-62
  GI50: > 100 µM (inactive)

## O=C(CCCn1ccnc1[N+](=O)[O-])NCCn1cnc([N+](=O)[O-])n1
786-0
  GI50: > 100 µM (inactive)
CCRF-CEM
  GI50: > 100 µM (inactive)
HCT-15
  GI50: > 100 µM
IGROV-1
  GI50: > 100 µM (inactive)
K562
  GI50: > 100 µM (inactive)
MOLT-4
  GI50: > 100 µM (inactive)
NCI-H226
  GI50: > 100 µM (inactive)
NCI-H23
  GI50: > 100 µM (inactive)
NCI-H522
  GI50: > 100 µM (inactive)
NCI/ADR-RES
  GI50: > 100 µM (inactive)
PC-3
  GI50: > 100 µM (inactive)
RPMI-8226
  GI50: > 100 µM (inactive)
SK-MEL-28
  GI50: > 100 µM (inactive)
SK-MEL-5
  GI50: > 100 µM (inactive)
U-251
  GI50: > 100 µM (inactive)
UACC-62
  GI50: > 100 µM (inactive)

## CCOC(=O)/C(O)=C(/c1n[nH]c(=O)c2ccccc12)[N+](=O)[O-]
786-0
  GI50: > 100 µM (inactive)
CCRF-CEM
  GI50: > 100 µM (inactive)
EKVX
  GI50: 70.8 µM (inactive)
HCC 2998
  GI50: > 100 µM (inactive)
HCT-15
  GI50: > 100 µM
IGROV-1
  GI50: > 100 µM (inactive)
K562
  GI50: > 100 µM (inactive)
MOLT-4
  GI50: > 100 µM (inactive)
NCI-H226
  GI50: > 100 µM (inactive)
NCI-H23
  GI50: > 100 µM (inactive)
NCI-H522
  GI50: > 100 µM (inactive)
RPMI-8226
  GI50: > 100 µM (inactive)
SK-MEL-28
  GI50: > 100 µM (inactive)
SK-MEL-5
  GI50: > 100 µM (inactive)
SNB-19
  GI50: > 100 µM (inactive)
U-251
  GI50: > 100 µM (inactive)
UACC-62
  GI50: > 100 µM (inactive)

## CCO/C=C1\N=C(c2ccc(Cl)c(Cl)c2)OC1=O
786-0
  GI50: > 100 µM (inactive)
CCRF-CEM
  GI50: > 100 µM (inactive)
EKVX
  GI50: 41 µM (inactive)
HCC 2998
  GI50: > 100 µM (inactive)
HCT-15
  GI50: > 100 µM
IGROV-1
  GI50: > 100 µM (inactive)
K562
  GI50: > 100 µM (inactive)
MOLT-4
  GI50: > 100 µM (inactive)
NCI-H226
  GI50: 30.5 µM (inactive)
NCI-H23
  GI50: > 100 µM (inactive)
NCI-H522
  GI50: 89.5 µM (inactive)
RPMI-8226
  GI50: > 100 µM (inactive)
SK-MEL-28
  GI50: > 100 µM (inactive)
SK-MEL-5
  GI50: > 100 µM (inactive)
SNB-19
  GI50: > 100 µM (inactive)
UACC-62
  GI50: > 100 µM (inactive)

## COc1cc2c(cc1OC)-c1[nH]c3ccc(C#N)cc3c1CC(=O)N2
786-0
  GI50: 3.68 µM (inactive)
CCRF-CEM
  GI50: 1.56 µM (inactive)
EKVX
  GI50: 22.2 µM (inactive)
HCT-15
  GI50: 4.02 µM
IGROV-1
  GI50: 0.759 µM (active)
MDA-MB-231
  GI50: > 100 µM (inactive)
MOLT-4
  GI50: 2.65 µM (inactive)
NCI-H226
  GI50: 3.8 µM (inactive)
NCI-H23
  GI50: 12.2 µM (inactive)
NCI/ADR-RES
  GI50: > 100 µM (inactive)
PC-3
  GI50: 57.5 µM (inactive)
SK-MEL-28
  GI50: > 26.3 µM (inactive)
SK-MEL-5
  GI50: 3.23 µM (inactive)
SNB-19
  GI50: > 100 µM (inactive)
U-251
  GI50: 2.61 µM (inactive)
UACC-62
  GI50: > 84.9 µM (inactive)

## N#CCCC(CC#N)N1CCN(CCO)CC1 (stereo not drawn)
786-0
  GI50: > 100 µM (inactive)
CCRF-CEM
  GI50: > 100 µM (inactive)
EKVX
  GI50: > 100 µM (inactive)
HCC 2998
  GI50: > 100 µM (inactive)
HCT-15
  GI50: > 100 µM
IGROV-1
  GI50: > 100 µM (inactive)
K562
  GI50: > 100 µM (inactive)
MDA-MB-231
  GI50: > 100 µM (inactive)
MOLT-4
  GI50: > 100 µM (inactive)
NCI-H226
  GI50: > 100 µM (inactive)
NCI-H23
  GI50: > 100 µM (inactive)
NCI/ADR-RES
  GI50: > 100 µM (inactive)
RPMI-8226
  GI50: > 100 µM (inactive)
SK-MEL-28
  GI50: > 100 µM (inactive)
SK-MEL-5
  GI50: > 100 µM (inactive)
SNB-19
  GI50: > 100 µM (inactive)
U-251
  GI50: > 100 µM (inactive)
UACC-62
  GI50: > 100 µM (inactive)

## CN1C(=O)C2CCCC(=O)N2c2cccnc21 (stereo not drawn)
786-0
  GI50: > 100 µM (inactive)
CCRF-CEM
  GI50: > 100 µM (inactive)
EKVX
  GI50: > 100 µM (inactive)
HCC 2998
  GI50: > 100 µM (inactive)
HCT-15
  GI50: > 100 µM
IGROV-1
  GI50: > 100 µM (inactive)
K562
  GI50: > 100 µM (inactive)
MDA-MB-231
  GI50: > 100 µM (inactive)
MOLT-4
  GI50: > 100 µM (inactive)
NCI-H226
  GI50: > 100 µM (inactive)
NCI-H23
  GI50: > 100 µM (inactive)
NCI-H522
  GI50: > 100 µM (inactive)
NCI/ADR-RES
  GI50: > 100 µM (inactive)
RPMI-8226
  GI50: > 100 µM (inactive)
SK-MEL-28
  GI50: > 100 µM (inactive)
SK-MEL-5
  GI50: > 100 µM (inactive)
SNB-19
  GI50: > 100 µM (inactive)
U-251
  GI50: > 100 µM (inactive)
UACC-62
  GI50: 68.9 µM (inactive)
